In patent US9949976B2, “Kinase inhibitor and use thereof” (Sihuan Pharmaceutical Holdings Group Ltd., priority 2013, dated 2018):

Columns and labels:
CDK4/D3 = CDK4/D3 (Homo sapiens, UniProt P11802); assay: In vitro enzyme-inhibiting activity, Caliper Mobility Shift method; type: biochemical; conditions: read-out: CDK enzyme-inhibiting activity IC50 CDK4/D3
Description: Measurement of activity for inhibiting CDK4/6 kinase by Caliper Mobility Shift method.
1) Preparation of 1-Fold Buffer for CDK4 Kinase 800 μL stock solution containing 1000 mM HEPES (pH 7.5), and 40 μL stock solution containing 10% Triton X-100, were added to 39160 μL ultra pure water, and the resultant mixture was mixed homogeneously.
25 mL stock solution containing 4% Coating Reagent #3 (provided with the 12-sipper chip used in Caliper device), 50 mL stock solution containing 1000 mM HEPES (pH 7.5), 50 mL stock solution containing 0.5 M EDTA, and 0.25 mL stock solution containing 30% Brij-35, were added to 374.75 mL ultra pure water, and the resultant mixture was mixed homogeneously.
7 μL CDK4/D3 enzyme solution, and 9 μL stock solution containing 1M DTT were added to 1784 μL 1-fold CDK4 kinase buffer, and the resultant mixture was mixed homogeneously.
10 μL stock solution containing 100 mM ATP, 45 μL stock solution containing 1M MgCl2, and 45 μL FAM-tagged polypeptide 8, were added to 1700 μL 1-fold CDK4 kinase buffer, and the resultant mixture was mixed homogeneously.
DMSO solution containing 10 mM test compound was diluted with DMSO to a solution containing 50 μM test compound (which was used as a stock solution).
1) 5 μL 5-fold test compound solution and 10 μL 2.5-fold kinase solution were added to the corresponding wells in a 384-well plate, and incubated at room temperature for 10 min.
2) To the corresponding wells, 10 μL 2.5-fold polypeptide solution was added to start the enzymatic reaction, and incubation was performed at 28° C. for 5 h.
To the corresponding wells, 25 μL stop solution was added to stop the reaction.
The data was read by Caliper device, the inhibition rate was calculated by the following formula, and curve fitting was carried out by GraphPad5.0 software to get IC50 value. Inhibition rate=(maximal value−sample value)/(maximal value−minimal value)×100, wherein, maximal value: positive control without addition of test compound; minimal value: negative control without addition of enzyme.

H358 lung cancer cell = assay: BrdU cell proliferation assay (PerkinElme kit); type: cell-based; conditions: Homo sapiens, NCI-H358, 48 h; read-out: In vitro cell-inhibiting activity IC50 H358
Description: (§1) Experimental method: cell proliferation assay was carried out by BrdU method (BrdU cell proliferation assay kit, PerkinElme Company).
(§2) Preparation of gradient dilution solutions of test compound: the stock solution containing 5 mM test compound was diluted by DMSO to prepare a 2 mM solution, then was subjected to 4-fold stepwise dilution to 9 concentration gradients.
(§3) (1) Cells grown to exponential growth phase were digested with pancreatin, and centrifuged to collect the cells. The adherent cells were re-suspended in the corresponding culture medium, counted, and seeded to a 96-well plate; H358 cells and SW780 cells were seeded at 4000 cells/well/100 μL; PC3 cells were seeded at 1500 cells/well/100 μL; H441 cells were seeded at 6000 cells/well/100 μL. The plates were placed in a cell incubator at 37° C. After the cells adhered to the wall, the medium was replaced by serum-free medium. The suspended cells MV-4-11 and JeKo-1 were re-suspended with serum-free medium, counted, seeded to a 96-well plate by 10000 cells/well/100 μL and placed in a cell incubator overnight at 37° C. with 5% CO2.
(§4) (2) To each well, 99 μL growth medium containing 2×FBS was added, then 1 μL diluted 200× test compound was added to the well. The final concentration of the test compound was 10000, 2500, 625, 156.25, 39.06, 9.77, 2.44, 0.61, 0.15 or 0 nM, and the cells were cultured for 48 h at 37° C.
(§5) (3) To each well, 2 μL 100-fold BrdU labelled solution was added, and the culture medium was sucked by a vacuum pump after incubation in a cell incubator overnight and equilibrated at room temperature for 0.5 h.
(§6) (4) To each well, 100 μL fixing solution was added; the solution was discarded after incubation for 30 min at room temperature.
(§7) (5) To each well, 100 μL 1-fold BrdU-Eu detection antibody solution was added, the solution was discarded after incubation for 1 h at room temperature, and the well was washed with 1-fold washing liquor at 250 μL/well for 5 times.
(§8) (6) To each well, 200 μL of DELFIA Inducer was added and incubated for 15 min at room temperature. Value of fluorescence (Flu) was measured by ELISA instrument
(§9) (2) The data was processed by GraphPad Prism 6 software to get a curve and IC50 values.

H441 lung cancer cell = assay: BrdU cell proliferation assay (PerkinElme kit); type: cell-based; conditions: Homo sapiens, NCI-H441, 48 h; read-out: In vitro cell-inhibiting activity IC50 H441
Description: as §1, §2, §3, §4, §5, §6, §7, §8, §9

JeKo-1 lymphoma cell = assay: BrdU cell proliferation assay (PerkinElme kit); type: cell-based; conditions: Homo sapiens, JeKo-1, 48 h; read-out: In vitro cell-inhibiting activity IC50 JeKo-1
Description: as §1, §2, §3, §4, §5, §6, §7, §8, §9

[1] = tested on: PC3 prostatic cancer cell; assay: BrdU cell proliferation assay (PerkinElme kit); type: cell-based; conditions: 48 h; read-out: In vitro cell-inhibiting activity IC50 PC3
Description: as §1, §2, §3, §4, §5, §6, §7, §8, §9

[2] = tested on: SW780 bladder cancer cell; assay: BrdU cell proliferation assay (PerkinElme kit); type: cell-based; conditions: Homo sapiens, SW780, 48 h; read-out: In vitro cell-inhibiting activity IC50 SW780
Description: as §1, §2, §3, §4, §5, §6, §7, §8, §9

[3] = tested on: MCF-7 human breast cancer cell; assay: BrdU cell proliferation assay (Cell Signaling kit); type: cell-based; conditions: MCF7, 72 h, read-out: In vitro cell-inhibiting activity IC50 MCF-7
Description: (§10) Experimental method: cell proliferation assay was carried out by BrdU method (BrdU cell proliferation assay kit, Cell Signaling Technology Company).
(§11) Preparation of gradient dilution solutions of test compound: the stock solution containing 10 mM test compound was subjected to 4-fold stepwise dilution with DMSO to prepare solutions containing 2.5 mM, 625 μM, 156 μM, 39 μM, 9.8 μM, and 2.5 μM test compound, respectively. 2 μL DMSO-diluted compound was added to 198 μL culture medium containing 10% FBS to prepare […] test compound, wherein the maximum concentration of the test compound was 100 μM, the concentration of DMSO was 1%, and there were 7 concentration gradients.
MCF-7 medium: DMEM+10% FBS+0.01 mg/mL insulin
(§12) (1) Cells grown to 80% confluence (in exponential growth phase) were digested with pancreatin, and centrifuged to collect the cells. MDA-MB-435S and U87MG cells were re-suspended in FBS-free culture medium, counted, and seeded to a 96-well plate; MDA-MB-435S cells were seeded at 3000 cells/well/81 μL; U87MG cells were seeded at 4000 cells/well/81 MCF-7 cells were resuspended in culture medium containing 1% FBS, and counted and seeded to a 96-well plate, at 4000 cell/well/82 μL. The plates were placed in a cell incubator at 37° C. […]
(§13) (9) To each well, stop solution (100 μL) was added, and OD value at 450 nm was measured by ELISA instrument […]

[4] = tested on: U87MG human glioblastoma cell; assay: BrdU cell proliferation assay (Cell Signaling kit); type: cell-based; conditions: U-87 MG, 72 h, read-out: In vitro cell-inhibiting activity IC50 U87MG
Description: as §10, §11
U87MG medium: MEM+10% FBS
as §12, §13

Chain of CDK4/D3 (P11802 whole entry): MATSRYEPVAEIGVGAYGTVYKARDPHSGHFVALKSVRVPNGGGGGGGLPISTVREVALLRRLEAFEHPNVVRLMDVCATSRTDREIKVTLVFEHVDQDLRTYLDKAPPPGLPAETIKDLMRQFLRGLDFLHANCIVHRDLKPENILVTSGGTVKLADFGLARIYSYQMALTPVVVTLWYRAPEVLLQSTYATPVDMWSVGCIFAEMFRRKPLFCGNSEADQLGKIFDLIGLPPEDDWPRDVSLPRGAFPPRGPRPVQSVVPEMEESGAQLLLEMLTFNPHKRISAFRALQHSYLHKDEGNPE
Chain of CDK4/D3 (P30281 whole entry partner): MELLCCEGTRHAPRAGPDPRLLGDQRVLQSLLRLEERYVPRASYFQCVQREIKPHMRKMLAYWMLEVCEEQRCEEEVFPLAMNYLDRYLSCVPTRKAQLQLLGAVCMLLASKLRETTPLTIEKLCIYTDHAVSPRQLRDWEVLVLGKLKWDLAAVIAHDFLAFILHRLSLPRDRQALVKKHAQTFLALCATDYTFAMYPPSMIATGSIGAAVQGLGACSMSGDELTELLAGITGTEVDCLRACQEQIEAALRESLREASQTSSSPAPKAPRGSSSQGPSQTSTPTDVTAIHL

CCN1CCN(Cc2cnc(Nc3cc(-c4cc(F)c5nc(C)n(C(C)C)c5c4)c(F)cn3)nc2)CC1 [Compound 1, 5-((4-ethylpiperazin-1-yl)methyl)-N-(5-fluoro-4-(4-fluoro-1-isopropyl-2-methyl-1H-benzo[d]imidazol-6-yl)pyridin-2-yl)pyrimidin-2-amine]
IC50 (CDK4/D3): 0.0027 µM | IC50 (H358 lung cancer cell): 0.291 µM | IC50 (H441 lung cancer cell): 0.148 µM | IC50 (JeKo-1 lymphoma cell): 0.037 µM | IC50 [1]: 0.261 µM | IC50 [2]: 0.163 µM

CCN1CCN(Cc2ccc(Nc3ncc(F)c(-c4cc(F)c5nc(C)n(C(C)C)c5c4)n3)nc2)CC1 [LY2835219, reference compound]
IC50 [3]: 0.176 µM | IC50 [4]: 0.04 µM
